Columns and labels:
[1] = target: T1, recombinant human Cox-1 (r-hu Cox1) (Homo sapiens, UniProt P23219); assay: Recombinant human PGHS-1 enzyme assay (RHUCX1); assay type: biochemical; details: read-out: RHUCX1 % Inh. at Dose
T1 construct: made in house; host or cells: baculovirus/Sf9 insect cells (microsomes)
Procedure, shortened: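 Prostaglandin biosynthesis was measured as PGE2 output, read by enzyme immunoassay after a 2.5-minute room-temperature reaction stopped with HCl and neutralized with NaOH.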

[2] = system: carrageenan induced paw edema; assay: Carrageenan induced paw edema (CPE) in rats; assay type: in vivo; details: 10 mpk oral, rat, 3 hours after carrageenan; read-out: CPE % Inhib. @ 10 mpk
Procedure, shortened: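 Male Sprague-Dawley rats (170–190 g) dosed orally in PEG 400, 1 h before subplantar 0.1 ml 1% lambda carrageenan in right hindpaw. Plethysmographic paw volume at 0 and 3 h; edema as difference, % inhibition versus control mean (±SEM), Dunnett's test, ED50 by linear regression.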

[3] = system: air pouch prostaglandin biosynthesis (Cox-2); assay: Carrageenan induced air pouch prostaglandin biosynthesis model (CAP); assay type: in vivo, rat; details: 4 h; 3 mpk, rat; read-out: CAP % Inhib. @ 3 mpk
Procedure, shortened: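 Male Sprague Dawley rats with dorsal air pouches (20 mL air day 0, 10 mL day 3) received 0.2% lambda carrageenan in saline into the pouch on day 7. Compounds dosed at 0.1 to 10 mg/kg 30 min before carrageenan; pouch lavaged 4 h later, prostaglandins measured by EIA. Percent inhibition versus control mean; ED50 by linear regression.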

T1 sequence (P23219 24-599): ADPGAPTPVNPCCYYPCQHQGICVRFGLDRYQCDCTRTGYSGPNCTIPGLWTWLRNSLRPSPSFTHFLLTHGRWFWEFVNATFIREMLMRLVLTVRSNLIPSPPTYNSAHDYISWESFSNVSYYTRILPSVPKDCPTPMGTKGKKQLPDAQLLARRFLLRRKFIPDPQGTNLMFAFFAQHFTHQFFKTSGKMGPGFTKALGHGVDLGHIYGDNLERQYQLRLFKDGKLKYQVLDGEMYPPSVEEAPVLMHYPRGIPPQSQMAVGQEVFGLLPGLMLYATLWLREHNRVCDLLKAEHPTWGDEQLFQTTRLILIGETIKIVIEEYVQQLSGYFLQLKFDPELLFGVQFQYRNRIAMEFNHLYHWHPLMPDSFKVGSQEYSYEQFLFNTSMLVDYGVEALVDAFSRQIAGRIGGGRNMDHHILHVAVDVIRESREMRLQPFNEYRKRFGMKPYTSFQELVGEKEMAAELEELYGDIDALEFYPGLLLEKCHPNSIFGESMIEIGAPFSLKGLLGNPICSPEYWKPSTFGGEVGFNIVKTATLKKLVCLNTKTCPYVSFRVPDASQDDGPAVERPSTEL

inhibition at 10 µM ([1]; 10 μM): 40% | inhibition at 30 µM ([1]; 30 μM): 62%
SMILES: NS(=O)(=O)c1ccc(-c2cnn(-c3ccc(F)cc3)c(=O)c2-c2ccc(F)cc2)cc1 [Example 89]
inhibition in vivo at 10 mg/kg [2]: 45.5% | inhibition in vivo at 3 mg/kg [3]: 94%

— US20020028938A1, “Prostaglandin endoperoxide H synthase biosynthesis inhibitors” (priority 1997, published 2002)
